Results published in patent US20240067625A1, “SMALL-MOLECULE MODULATORS OF THE ORPHAN NUCLEAR RECEPTOR TLX” (priority 2020, published 2024).

Key:
[1] = molecular target: TLX LBD (Homo sapiens (Human), UniProt Q9Y466); assay: ALPHA screen assay for TLX LBD and coactivator peptide recruitment; assay type: biochemical; settings: for EC50 / Average ALPHA signal at 200 μM (std. dev.): Table 3; for Average ALPHA signal at 200 μM (std. dev.): mean (std. dev.); for Normalized fold increase at 200 μM: Table 2
Procedure: Assays were performed according to the manufacturer's protocol (PerkinElmer, USA), with the following modifications: Ligands were tested for TLX-coactivator binding in 50 mM phosphate buffer, 150 mM NaCl, pH 7, 1 mM DTT and 100 μM CHAPS. Ligands were dissolved and diluted in DMSO as stocks and were prepared in assay buffer from the original stock in the 100% DMSO and added to the assay plate. Biotinylated SRC peptide and polyhistidine tagged TLX LBD were diluted in assay buffer, subsequently added to respective ALPHA beads, under low light. The plates were spun down, mixed with a shaker and incubated for 120 minutes and read on a TECAN Plate reader using the manufacturer's protocol.

[2] = tested on: human brain organoids; assay: TLX agonist activity in human brain organoids (RNA expression of NSC and immature neuron genes); assay type: cell-based; settings: 25 μM for 3 days, organoids at 68 days; compared to controls; FIG. 13
Description: Human induced pluripotent cells (iPSCs) were used to generate brain organoids using a modified Pasca protocol as previously described. See, Manganas, et al. (Sci Rep […], 11: 5546) and Pasca, et al. (Nat. Methods 2015, 12: 671-678), which are incorporated herein by reference. Within 2 months, the protocol produces organoids with a variety of cell types that mimic early human brain (neural stem cells, progenitors, different types of neurons at different maturation stage, astrocytes, oligodendrocytes). About 300 organoids can be generated per batch and thus the model provides for testing of different experimental paradigms in the same batch. Organoids were treated at 68-days with 25 μM of reference compound 29, test compounds 95 and […]), or vehicle (0.03N HCl) for 3 days, after which they were processed to examine the expression of NSC genes (PAX6, BLBP) and immature neuron genes (PROM1, DCX).

[3] = tested on: neural stem and progenitor cells in the adult hippocampal neurogenic niche; assay: In vivo neurogenesis study: neural stem cell proliferation (CldU) after oral dosing; set-up: species or system C57BL/6J mice; settings: 3 mg/kg oral gavage daily for 5 days; CldU labelling; FIG. 11
Procedure: Small Molecule Oral Gavage Delivery and Chloro-Deoxyuridine (CldU) Injections. Small molecule candidates (3 mg/kg of animal) were delivered through oral gavage to animals (N=3-4) each day at the same time for 5 consecutive days. On the final day, animals received four consecutive IP injections of CldU (85 mg/kg dissolved in sterile saline) 2 hr apart.
Immunohistochemistry. Animals were anesthetized and perfused transcardially with 30 ml of phosphate buffered saline (PBS) followed by 30 ml of 4% (w/v) ice cold paraformaldehyde (PFA) in PBS. Brains were post fixed in 4% PFA solution overnight at 4° C. PFA was replaced with PBS and tissues were kept at 4° C. for further use. Free floating serial sagittal sections of 50 μm thickness were cut using Vibratome 1500 sectioning system and collected in 5 parallel sets each containing 14 sections 250 μm apart from each other. […] Following initial permeabilization and blocking at room temperature (RT) for 2 hrs, sections were incubated with primary antibodies overnight at 4° C. Sections were then washed three times and incubated with fluorochrome-conjugated secondary antibodies for 2 hrs at RT. Sections were washed three times with PBS and mounted on slides with DakoCytomation Fluorescent Mounting Medium (DakoCytomation, Carpinteria, CA) as anti-fading agent.
Sections were counterstained with DAPI (5 μg/mL, Sigma) at 1:1000.
Confocal microscopy and stereology. Quantification and characterization of proliferating cell types was performed according to previously described optical dissector methods. […] An observer blind to experimental groups counted immunoreactive cells that had the mentioned properties below in every fifth sagittal section throughout the dentate gyrus. Neural stem cells were identified according to their triangular Sox2^+ nuclei located in SGZ with a GFAP^+ radial process spanning through granule cell layer.
For quantification that required analysis of phenotypic morphology and/or overlapping markers, 20 μm thick sections were scanned with confocal microscope (Zeiss LSM 710). 3D reconstruction and orthogonal views were acquired via ZEN2012 SP1 software (Zeiss, Thornwood, NY). Cells in the uppermost focal plane were excluded from the quantification. Total counts from 14 sections were multiplied by 10 to get the total number of cells in two dentate gyri. The ratio of CldU^+ cells among a certain cell type was calculated by dividing the CldU^+ cells by the total number of cells in that cell type.
Statistics. Statistical analysis was performed using GraphPad Prism 8.0 (GraphPad RRID:SCR_002798). Experiments involving 2 groups were compared using un-paired Student t-test. […]

TLX LBD, sequence (Q9Y466 155-383): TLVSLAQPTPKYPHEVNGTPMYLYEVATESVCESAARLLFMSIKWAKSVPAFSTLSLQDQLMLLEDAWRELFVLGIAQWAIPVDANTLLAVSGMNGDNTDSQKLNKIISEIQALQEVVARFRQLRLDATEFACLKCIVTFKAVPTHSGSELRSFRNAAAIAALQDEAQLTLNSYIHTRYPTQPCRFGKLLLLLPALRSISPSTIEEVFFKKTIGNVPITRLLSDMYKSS

Row | SMILES | EC50 [1] [nM] | Average ALPHA signal at 200 μM (std. dev.) [1] | expression of NSC genes (PAX6, BLBP) and immature neuron genes (PROM1, DCX) [2] | Normalized fold increase at 200 μM [1] [X] | cell proliferation of neural stem and progenitor cells in the adult hippocampal neurogenic niche [3]
1 | CC(C)CCNc1ncccc1C(=O)N1CCN(Cc2ccccc2)CC1 [Compound 29, (4-benzylpiperazin-1-yl)(2-(isopentylamino)pyridin-3-yl)methanone, reference compound] | 0.0361 | 2.52 (0.09) | did not lead to a substantial difference in gene expression | – | –
2 | CC(C)CCNc1ncccc1C(=O)N1CCN(Cc2ccccc2)C[C@@H]1Cc1ccccc1 [Compound 96] | 0.00315 | 2.41 (0.07) | substantially increased the expression levels of tested genes | – | –
3 | CC(C)CCNc1ncccc1C(=O)N1CCN(Cc2ccccc2)C[C@@H]1C [Compound 4, (S)-(4-benzyl-2-methylpiperazin-1-yl)(2-(isopentylamino)pyridin-3-yl)methanone] | 0.0298 | 2.29 (0.09) | – | 2.29 | increase in cell proliferation
4 | CC(C)CCNc1ncccc1C(=O)N1CCN(Cc2ccccc2)C[C@H]1C [Compound 3, (R)-(4-benzyl-2-methylpiperazin-1-yl)(2-(isopentylamino)pyridin-3-yl)methanone] | 0.0281 | 2.49 (0.12) | – | 2.49 | increase in cell proliferation
5 | CC(C)CCNc1ncccc1C(=O)N1CCN(Cc2ccccc2)C[C@H]1Cc1ccccc1 [Compound 95] | – | 2.37 (0.19) | substantially increased the expression levels of tested genes | – | –
6 | CC(C)CCNc1ncccc1C(=O)N1CCN(Cc2ccccc2)[C@@H](C)C1 [Compound 2, (S)-(4-benzyl-3-methylpiperazin-1-yl)(2-(isopentylamino)pyridin-3-yl)methanone] | 0.0637 | 2.45 (0.05) | – | 2.45 | increase in cell proliferation
7 | CC(C)CCNc1ncccc1C(=O)N1C[C@H](C)N(Cc2ccccc2)C[C@@H]1CC(=O)O [Compound 81] | – | 1.15 (0.02) | – | – | –
8 | COC(=O)C[C@@H]1CN(C(=O)c2cccnc2NCCC(C)C)C[C@@H](C)N1Cc1ccccc1 [Compound 64] | 0.00858 | 2.26 (0.07) | – | – | –
9 | CC(C)CCNc1ncccc1C(=O)N1C[C@H](C)N(Cc2ccccc2)C[C@H]1CC(=O)O [Compound 82] | – | 1.11 (0.02) | – | – | –
10 | COC(=O)c1ccc(CN2CCN(C(=O)c3cccnc3NCCC(C)C)CC2)cc1 [Compound 57] | 0.0745 | 2.54 (0.04) | – | – | –
11 | C[C@H]1CN(C(=O)c2cccnc2NC2CC2)CCN1Cc1ccccc1 [Compound 91] | – | 1.48 (0.04) | – | – | –
12 | CC(C)CCNc1ncccc1C(=O)N1CCN(C)C[C@H]1C [Compound 50] | – | 0.93 (0.05) | – | – | –
13 | CC(C)CCNc1ncccc1C(=O)N1CCN(Cc2ccccc2C(=O)O)CC1 [Compound 58] | – | 1.30 (0.05) | – | – | –
14 | CCCCCCN1CCN(C(=O)c2cccnc2NCCC(C)C)[C@@H](C)C1 [Compound 36] | 0.0126 | 8.78 (0.30) | – | – | –
15 | CC(C)Nc1ncccc1C(=O)N1CCN(Cc2ccccc2)[C@H](C)C1 [Compound 85] | – | 1.48 (0.16) | – | – | –
16 | CC(C)CCNc1ncccc1C(=O)N1CCN(Cc2ccc3cnccc3c2)C[C@H]1C [Compound 52] | 0.0261 | 2.03 (0.12) | – | – | –
17 | COC(=O)C[C@H]1CN(Cc2ccccc2)[C@@H](C)CN1C(=O)c1cccnc1NCCC(C)C [Compound 73] | – | 2.69 (0.07) | – | – | –
18 | CCCCN1CCN(C(=O)c2cccnc2NCCC(C)C)[C@H](C)C1 [Compound 49] | 0.0332 | 3.09 (0.12) | – | – | –
19 | CC(C)CCNc1ncccc1C(=O)N1CCN(Cc2ccccc2)C[C@H]1CC(C)C [Compound 93] | – | 3.46 (0.10) | – | – | –
20 | CC(C)CCNc1ncccc1C(=O)N1CCN(Cc2ccccc2)[C@H](C)C1 [Compound 1, (R)-(4-benzyl-3-methylpiperazin-1-yl)(2-(isopentylamino)pyridin-3-yl)methanone] | 0.0853 | 1.97 (0.07) | – | 1.97 | increase in cell proliferation
21 | CC(C)CCNc1ncccc1C(=O)N1C[C@@H](CC(=O)O)N(Cc2ccccc2)[C@@H](C)C1 [Compound 65] | – | 0.99 (0.04) | – | – | –
22 | COc1cccc(CN2CCN(C(=O)c3cccnc3NCCC(C)C)[C@H](C)C2)c1 [Compound 51] | 0.0199 | 2.98 (0.10) | – | – | –
23 | CC(C)CCNc1ncccc1C(=O)N1C[C@H](CC(=O)O)N(Cc2ccccc2)[C@@H](C)C1 [Compound 66] | – | 0.96 (0.03) | – | – | –
